Legend:
[1] = tested on: MC903 induced atopic dermatitis in mice; test: Murine prophylactic model of atopic dermatitis induced by topical application of MC903; assay type: in vivo, BALB/cN mice or CD1/Swiss mice; conditions: 10 mg/kg b.i.d., versus disease vehicle group
Excerpt: 5.5. Murine Prophylactic Model of Atopic Dermatitis Induced by Topical Application of MC903
Methylcellulose 0.5% was obtained from VWR (cat no. AX021233). MC903 (calcipotriol) was obtained from Tocris Bioscience (cat no. 2700/50). ProSense® 680 was obtained from PerkinElmer (cat no. NEV10003). RNAlater® was obtained from Ambion (cat no. AM7021). Imalgene® 1000 (Merial) and Rompun® 2% (Bayer) were obtained from Centravet (cat no. IMA004-6827812 and ROM001-6835444).
BALB/cN mice (female, 18-20 g body weight) or CD1/Swiss mice (female, 24-26 g body weight) were obtained from Janvier Labs (France). Mice were kept on a 12 h light/dark cycle (07:00-19:00). Temperature was maintained at 22±2° C., food and water were provided ad libitum. […]
The thickness of both ears was measured (after anaesthesia induced by isoflurane inhalation) at initiation of the study, every other day and at sacrifice using a thickness gage (Mitutoyo, Absolute Digimatic, 547-321).
Body weight was assessed at initiation of the study, every other day and at sacrifice.
On D4, mice from all groups receive ProSense® 680 probe (0.8 nmol/10 g, IP). […] Granulocyte infiltration was measured using in vivo molecular imaging (Bruker In-Vivo Xtreme imaging system, excitation wavelength: 630 nm, emission wavelength: 700 nm, acquisition time: 5 seconds). […]
For each readout, mean and sem were calculated. […]

[2] = tested on: MIA induced inflammatory hypersensitivity to pain; test: MIA rat pain model (weight bearing); assay type: in vivo, Male Sprague Dawley
Excerpt: 5.11.1. Principle of the Assay
The mono-iodoacetate (MIA) model has become a standard model established by Van der Kraan (van der Kraan et al., 1989) for modelling joint disruption in OA in rat.
Intra-articular injection of MIA in rodents reproduces OA-like lesions and functional impairment that can be analyzed and quantified. MIA is an inhibitor of […], disrupting cellular glycolysis and eventually resulting in cell death (van der Kraan et al., 1989).
The MIA pain mouse model described by Pitcher et al. (Pitcher et al. 2016) is used to evaluate the effect of a test compound against tactile allodynia by intra-articular injection of MIA causes chondrocyte cell death, leading to cartilage degeneration and subsequent subchondral bone alterations such as appearance of bone osteophytes (Janusz et al., 2001).
MIA is the one most often used, particularly to test the efficacy of pharmacologic agents to treat pain, as this model generates a reproducible, robust, and rapid pain-like phenotype that can be graded by altering MIA dosage.
Male Sprague Dawley (250-300 g) were housed at 22±1° C. and in light-controlled environment (lights on from 7 am to 8 pm) with ad libitum access to food and water.
Inflammatory hypersensitivity to pain was induced by an injection of Monosodium Iodoacetate (MIA) 25 ul 80 mg/ml solution, into the left knee joint. Animals developed inflammatory response within 3 days post MIA.
The test compounds were administered to the treatment groups on a […] basis, starting from day 3 (D3), and continued until the end-point day on D28.
On day 3, weight-bearing measurements were taken and animals ranked and randomized to treatment groups.
On the test days, pre-dose allodynia was evaluated prior to dosing, and the effects of the administered compounds assessed 2 hours post dosing.
The test compounds were administered to the treatment groups on daily basis, according to treatment group, (some were dosed days 3-7 post MIA, and some were dosed days 24-28 post MIA) and 2 hours post dosing weight-bearing measurements were taken.
The negative control group (n=6) was daily dosed per os with the vehicle (methylcellulose, MC 0.5%), the positive control group (n=10) was daily dosed per os with Celecoxib (50 mg/kg), and the test compound group (n=10) was daily dosed per os, with 0.5% MC/Solutol for days 3-7 post MIA (Inflammatory Phase). […]
For each readout, mean and sem are calculated. A difference statistically significant between intact or treated groups and in MIA vehicle group is evaluated with Prism software using a Two-way ANOVA (for treatment groups) followed by a Dunnett's multiple comparisons post-hoc test. *: p<0.05; **: p<0.01; ***: p<0.001 versus MIA Vehicle group.

COc1cn2nc(CCC(C)(C)O)cc2cc1NC(=O)c1cccn(C2CC2)c1=O [Compound 1, 1-cyclopropyl-N-[2-(3-hydroxy-3-methylbutyl)-6-methoxypyrazolo[1,5-a]pyridin-5-yl]-2-oxopyridine-3-carboxamide]
effect on ear thickening at D8 [1]: statistically significant effect
effect on granulocyte infiltrate [1]: statistically significant effect
reversal of inflammatory response on weight bearing ([2]; 5 mg/kg daily per os, days 5-7): significantly reversed the inflammatory response
reversal of inflammatory response on weight bearing ([2]; 5 mg/kg daily per os, days 26-28): significantly reversed the inflammatory response
reversal of inflammatory response on weight bearing ([2]; 30 mg/kg daily per os, days 3-7): significantly reversed the inflammatory response
reversal of inflammatory response on weight bearing ([2]; 30 mg/kg daily per os, days 26-28): significantly reversed the inflammatory response

Reference: US20220218679A1, “NOVEL COMPOUNDS AND PHARMACEUTICAL COMPOSITIONS THEREOF FOR THE TREATMENT OF INFLAMMATORY DISORDERS” (Galapagos NV, priority 2019, published 2022)
